Source: PMC11017395 (ACS Medicinal Chemistry Letters, 2024)
In brackets after ≈: the same amount, converted by molar mass. Like-named read-outs stand apart in the source and are kept apart here. Blank lines part the entries; values can stand above or below the molecule they belong to.

What was measured:
[1] = tested on: late-stages (IV – V) gametocytes; experiment: microbe, parasite or virus in culture; settings: Plasmodium falciparum
Source text: (§1) In vitro Antigametocytic Activity Assay. Gametocytes were produced as per the method reported by Reader and co-workers.3 The luciferase reporter assay was used to enable accurate, reliable and quantifiable investigations of the stage-specific action of gametocytocidal compounds for the early and late gametocyte marker cell line NF54-PfS16-GFP-Luc.
(§2) (representing >90% of either early stage II/III or mature/late stage IV/V gametocytes, respectively). […]
(§3) h drug pressure in a gas chamber (90% N 2, 5% O 2, and 5% CO 2) at 37 °C. Luciferase activity was determined in 30 µl parasite lysates by adding 30 µl luciferin substrate (Promega Luciferase Assay System) at room temperature and detection of resultant bioluminescence at an integration constant of 10s with the GloMax® Explorer Detection System with Instinct® Software. […]
(§4) µM) and internal project specific controls were included as controls. The dual point screens were performed as technical triplicates for a single biological assay.

[2] = tested on: immature-stage gametocytes (PfiGc), NF54-PfS16-GFP-Luc; experiment: Antigametocytic luciferase reporter assay, immature/early stage; settings: Plasmodium falciparum; for inhibition at 1 µM / inhibition at 5 µM: NF54, 48 h; for inhibition at 1 µM: read-out: Early gametocytes (EG) % activity, 1.0 µM; for inhibition at 5 µM: read-out: Early gametocytes (EG) % activity, 5.0 µM
[3] = tested on: late-stage gametocytes (PfLGc), NF54-PfS16-GFP-Luc; experiment: Antigametocytic luciferase reporter assay, late stage; settings: Plasmodium falciparum; for inhibition at 1 µM / inhibition at 5 µM: NF54, 48 h; for inhibition at 1 µM: read-out: Late gametocytes (LG) % activity, 1.0 µM; for inhibition at 5 µM: read-out: Late gametocytes (LG) % activity, 5.0 µM
Source text: as §1, §2, §3, §4

P. berghei = settings: in vivo, po
Description: In vivo Antiplasmodium Assay (Swiss TPH).
described,5 with the modification that mice (n = 3) were infected with a GFP -transfected P. berghei
ANKA strain (donated by A. P. Waters and C. J. Janse, Leiden University, The Netherlands), and
parasitemia was determined using standard flow cytometry techniques. The detection limit was 1
parasite in 1000 erythrocytes (that is, 0.1%). The activity was calculated as the difference between
the mean percent parasitemia for the control and treated groups expressed as a percent relative to the
control group. Compounds were dissolved or suspended in a vehicle consisting of 70% Tween -80
and 30% ethanol, followed by a 10 -fold dilution in H 2O and oral administration as four consecutive
Blood samples for the quadruple -dose regimens
The survival time in days was also recorded up to 30
days after infection. A compound was considered curative if the animal survived to day 30 after
infection with no detectable parasites by slide reading .

[4] = Turbidimetric kinetic aqueous solubility; format: physicochemical; settings: turbidimetric method, PBS pH 7.4, read-out: Sol. (solubility)
Description: Aqueous Solubility. Solubility was measured from amorphous solid forms of the compounds using the turbidimetric method. Following the dissolution of test compound in DMSO to make a 10 mM stock solution, a pre-dilution plate was prepared by taking from each stock solution and serially […]
pre-dilution solution, secondary dilutions of the compounds in both DMSO and 0.01M pH 7.4 PBS were prepared in triplicate on a second 96-well plate. Wells in columns 1-6 would contain […]
(§5) nominal concentrations as those in DMSO. The final volume of solvent in each assay plate was 200 µl, prepared by pipetting 4 µl each of solution from the pre-dilution plate to the corresponding well into both DMSO and PBS (both 196 µL). This ensures that the final concentration of DMSO in the […]
(§6) Similarly, a second secondary plate containing
(§7) Different concentrations in DMSO were prepared as controls to determine false turbidimetric absorbance readings arising from the compounds in solution absorbing incident radiation at the test wavelength. Following preparation, the assay plate was covered and left to equilibrate for 2 h at 25 °C. Afterwards, UV-vis absorbance readings from the plate were measured at 620 nm using a SpectraMax 340PC384 microplate reader. Plots of corrected absorbance against compound concentration were computed for a graphical representation of the data using MS Excel. Reserpine and hydrocortisone were used as positive and negative controls, respectively.
(§8) In vitro Antiplasmodium Assay. The compounds were tested using the modified [3H]-hypoxanthine incorporation assay, as previously reported.1
(§9) In vitro Cytotoxicity Assay. Compounds were screened against Chinese Hamster Ovarian (CHO) mammalian cell lines, using the 3-(4,5-dimethylthiazol-2-yl)-2,5-diphenyltetrazoliumbromide […]
It was prepared to 2 mg/ml in distilled water, while the stock solutions of test compounds were prepared to 20 mg/ml in DMSO (100%), […]
lowest being 0.001 µg/ml. […]
of cell suspension in each well and developed afterward by adding 25 µl of sterile MTT (Thermo

hERG K+ channel = target: T1, hERG K+ channel (Homo sapiens, UniProt Q12809); experiment: QPatch hERG assay; format: cell-based; settings: CHO K1 cells stably expressing hERG
T1 construct: host or cells: CHO K1 (ATCC), stably expressing hERG
Description: In vitro Liver-stage Assay (P. berghei-sporozoite Infection). In a 24-well plate, HepG2 was seeded
employed as reference drugs. Negative control wells received medium only.
cells were trypsinized and the percentage (%) of infected cells was determined by flow cytometry
(BD LSRFortessa) using at least 10000 events. For determining host cell viability, in a 96-well plate,
h of incubation, a volume 100 µl of medium containing drugs was added and further incubated at 37
°C. Negative control wells received medium only and positive wells received gentian violet. After
Drugs were tested in five different concentrations, each one in

[5] = tested on: drug sensitive (NF54) strain of Pf; experiment: In vitro antiplasmodium assay, [3H]-hypoxanthine incorporation, NF54; format: cell-based, Plasmodium falciparum; settings: for IC50: mean n ≥ 2
Description: All target compounds were evaluated for their antiplasmodium activity against the drug sensitive (NF54) strain of Pf and for turbidimetric kinetic solubility.
Aqueous Solubility. Solubility was measured from amorphous solid forms of the compounds using the turbidimetric method. Following the dissolution of test compound in DMSO to make a 10 mM stock solution, a pre-dilution plate was prepared by taking from each stock solution and serially diluting in triplicate to yield concentrations from 0.25 mM to 10.0 mM on a 96 well plate. From each pre-dilution solution, secondary dilutions of the compounds in both DMSO and 0.01M pH 7.4 PBS were prepared in triplicate on a second 96-well plate. Wells in columns 1-6 would contain […]
as §5, §6, §7, §8, §9

[6] = tested on: PfK1 multidrug resistant strain; experiment: microbe, parasite or virus in culture; format: cell-based, Plasmodium falciparum

T1 sequence (Q12809 whole entry): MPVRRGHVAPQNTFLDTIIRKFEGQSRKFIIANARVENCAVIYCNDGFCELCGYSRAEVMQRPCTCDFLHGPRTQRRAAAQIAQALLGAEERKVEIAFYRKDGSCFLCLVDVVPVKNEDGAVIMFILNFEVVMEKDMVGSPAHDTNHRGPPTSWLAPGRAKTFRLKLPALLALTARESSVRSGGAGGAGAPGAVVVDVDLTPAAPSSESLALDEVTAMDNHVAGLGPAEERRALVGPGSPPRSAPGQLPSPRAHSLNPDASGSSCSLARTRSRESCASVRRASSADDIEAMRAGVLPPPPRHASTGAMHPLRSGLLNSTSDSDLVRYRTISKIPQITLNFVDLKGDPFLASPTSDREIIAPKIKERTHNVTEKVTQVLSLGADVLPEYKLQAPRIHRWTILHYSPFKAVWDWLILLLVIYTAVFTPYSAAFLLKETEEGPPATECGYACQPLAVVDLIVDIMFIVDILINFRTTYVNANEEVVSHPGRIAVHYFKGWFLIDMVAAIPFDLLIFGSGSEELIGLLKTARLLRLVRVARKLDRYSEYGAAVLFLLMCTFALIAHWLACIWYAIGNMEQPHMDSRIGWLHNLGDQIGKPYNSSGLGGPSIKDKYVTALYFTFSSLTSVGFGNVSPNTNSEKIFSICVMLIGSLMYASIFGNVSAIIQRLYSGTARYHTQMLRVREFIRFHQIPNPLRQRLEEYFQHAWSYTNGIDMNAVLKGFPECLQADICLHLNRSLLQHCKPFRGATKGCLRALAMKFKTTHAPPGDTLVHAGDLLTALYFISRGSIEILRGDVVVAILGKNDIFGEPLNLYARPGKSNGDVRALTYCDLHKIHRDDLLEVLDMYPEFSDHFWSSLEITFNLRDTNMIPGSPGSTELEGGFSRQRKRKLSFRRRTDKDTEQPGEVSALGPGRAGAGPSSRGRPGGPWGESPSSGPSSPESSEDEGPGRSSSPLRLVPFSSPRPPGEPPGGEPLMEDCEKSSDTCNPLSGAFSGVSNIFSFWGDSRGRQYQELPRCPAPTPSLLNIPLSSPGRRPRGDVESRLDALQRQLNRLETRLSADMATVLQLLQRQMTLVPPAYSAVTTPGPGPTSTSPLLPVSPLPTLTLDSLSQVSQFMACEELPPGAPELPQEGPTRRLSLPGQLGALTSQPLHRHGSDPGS

Compound: COc1ccc(CCN2CCC(Nc3nc4ccccc4n3Cc3ccc(F)cc3)CC2)cc1 [AST, astemizole, reference compound]
- inhibition at 1 µM ([1]; read-out: Late gametocytes (LG) % activity, 1.0 µM): 13%
- inhibition at 5 µM ([1]; read-out: Late gametocytes (LG) % activity, 5.0 µM): 52%
- inhibition at 1 µM [2]: 5%
- inhibition at 5 µM [2]: 61%
- inhibition at 1 µM [3]: 0%
- inhibition at 5 µM [3]: 11%

Compound: CCN(CC)CCCC(C)Nc1ccnc2cc(Cl)ccc12 (stereo not drawn) [CQ, chloroquine]
- MSD (mean survival days) (P. berghei): 24 days

Compound: FC1CN(CCc2ccc(-c3noc(C(F)(F)F)n3)cc2)CCC1Nc1nc2ccccc2[nH]1 (stereo not drawn) [Compound 7]
- inhibition at 1 µM [2]: 0%
- inhibition at 5 µM [2]: 27.6 ± 0.8%
- IC50 ([2]; NF54, read-out: gametocytes IC50, immature-stage (PfiGc / PfEG)): 8.16 µM
- solubility at 2 h ([4]; PBS buffer): 120 µM (≈ 56.9 µg/mL)
- IC50 at 4 min (hERG K+ channel; pH 7.4, QPatch, CHO K1 cells expressing hERG): 0.98 µM
- selectivity ratio at 4 min (hERG K+ channel; pH 7.4, read-out: hERG SI (selectivity index = hERG IC50/PfNF54 IC50)): 4.47
- inhibition at 1 µM [3]: 10.9 ± 2.3%
- inhibition at 5 µM [3]: 37.8 ± 0.5%
- IC50 ([3]; NF54, read-out: gametocytes IC50, late-stage (PfLGc / PfLG)): 8 µM

Compound: F[C@H]1CN(CCc2ccc(-c3noc(C(F)(F)F)n3)cc2)CC[C@@H]1Nc1nc2ccccc2[nH]1 [Compound 8]
- fold improvement of antiplasmodium activity over 7 ([5]; PfNF54): 1.5 fold
- IC50 ([5]; Plasmodium falciparum, NF54, read-out: PfIC50 NF54, sensitive NF54 strain): 0.14 to 0.65 µM
- IC50 ([5]; read-out: PfIC50 NF54, sensitive NF54 strain): 0.147 µM
- RI (resistance index = PfK1 IC50/PfNF54 IC50) [6]: 2.61
- IC50 ([6]; Plasmodium falciparum, K1, read-out: PfIC50 K1): 0.384 µM
- solubility at 2 h [4]: 100 µM (≈ 47.4 µg/mL)

Compound: CN(C)c1ccc2nc3ccc(N(C)C)cc3[s+]c2c1 [methylene blue, reference compound]
- IC50 ([2]; NF54, read-out: gametocytes IC50, immature-stage (PfiGc / PfEG), stages I–III, n = 1, technical triplicate): 0.2 µM

- solubility at 2 h [4]: < 10 µM
Compound: COC(=O)[C@H]1[C@H]2C[C@@H]3c4[nH]c5cc(OC)ccc5c4CCN3C[C@H]2C[C@@H](OC(=O)c2cc(OC)c(OC)c(OC)c2)[C@@H]1OC [reserpine, reference compound]
